Results reported in patent publication US4545991A, “Difficidin and derivative antibacterials” (Merck & Co., Inc., priority 1983, dated 1985).
≈ marks a conversion by molar mass, not a printed value.

Tests used:
aerobic microorganisms = assay: antibacterial activity against aerobic microorganisms, summary; type: cell-based; conditions: such as Pseudomonas aeruginosa and Staphyloccoccus aureus
Salmonella typhimurium = assay: MIC, standard in vitro assay (Table I); type: cell-based; conditions: for MIC Range: 10^6 CFU, 1 strain tested
Excerpt: (§1) Using standard in vitro assay techniques, minimal inhibitory concentrations (MIC) have been determined for difficidin and oxydifficidin against a number of bacteria.

Streptococcus faecalis = assay: MIC, standard in vitro assay (Table I); type: cell-based; conditions: 10^6 CFU; 1 strain tested
Excerpt: as §1

Escherichia coli = assay: MIC, standard in vitro assay (Table I); type: cell-based; conditions: 10^6 CFU; 4 strains tested
Excerpt: as §1

Pseudomonas aeruginosa = assay: MIC, standard in vitro assay (Table I); type: cell-based; conditions: for MIC Range: 10^6 CFU, 3 strains tested
Excerpt: as §1

Serratia marcescens = assay: MIC, standard in vitro assay (Table I); type: cell-based; conditions: for MIC Range: 10^6 CFU, 1 strain tested
Excerpt: as §1

Enterobacter = assay: MIC, standard in vitro assay (Table I); type: cell-based; conditions: 10^6 CFU; 3 strains tested
Excerpt: as §1

Proteus = assay: MIC, standard in vitro assay (Table I); type: cell-based; conditions: for MIC Range: 10^6 CFU, 3 strains tested
Excerpt: as §1

Klebsiella pneumoniae = assay: MIC, standard in vitro assay (Table I); type: cell-based; conditions: 10^6 CFU; 2 strains tested
Excerpt: as §1

Staphylococcus aureus = assay: MIC, standard in vitro assay (Table I); type: cell-based; conditions: for MIC Range: 10^6 CFU, 3 strains tested
Excerpt: as §1

Ser. marcescens = assay: MIC, in vitro agar dilution assay, aerobic bacteria (Table II); type: cell-based; conditions: 10^6 CFU per spot
[1] = tested on: Bifidobacterium dentium Fox^r; assay: MIC, in vitro agar dilution assay, anaerobic bacteria (Table III); type: cell-based; conditions: Bifidobacterium dentium Fox^r; 10^6 CFU per spot
solubility = type: physicochemical; conditions: water, lower alcohols such as methanol and ethanol
[2] = tested on: C. difficile Clind^r, Fox^r; assay: MIC, in vitro agar dilution assay, anaerobic bacteria (Table III); type: cell-based; conditions: 10^6 CFU per spot
B. ovatus Pen^r = assay: as above; type: cell-based; conditions: 10^6 CFU per spot
Ps. aeruginosa = assay: MIC, in vitro agar dilution assay, aerobic bacteria (Table II); type: cell-based; conditions: Ps. aeruginosa, second unmarked strain; 10^6 CFU per spot
Vibrio percolans MB 1272 = assay: in vitro agar disc diffusion bioassay of column fractions (Table V); type: cell-based
Description: A 0.4 ml sample of 2.1 L spent ethyl acetate fraction from Step A above was evaporated to an oily residue and taken up in 0.7 ml of 7:3 methanol-0.01Mpotassium phosphate pH 7.0. A 0.4 ml aliquot of the solution was chromatographed in the same solvent at 28° C. on a Dupont Zorbax ODS column (4.6 mn ID×25 cm), 10 micron. The flow rate was 1 ml/min. and column effluent was monitored at 275 nm using a Laboratory Data Control Spectra Monitor I ultraviolet detector equipped with a 10 mm pathlength flow cell and a Honeywell Electronik 195 recorder. Eluate was collected in 0.5 ml fractions and assayed by agar disc diffusion against Vibrio percolans MB 1272. Table V summaries bioassay results.
The data in Table V show the presence of two distinct antibacterial substances in spent ethyl acetate. The activity in Fractions 11 and 12 is due to the antibacterial oxydifficidin. The activity in Fractions 61-65 is due to the antibacterial difficidin.

pH of aqueous solution = type: physicochemical
[3] = tested on: Bacteriodes fragilis Metr^r, Pen^r; assay: MIC, in vitro agar dilution assay, anaerobic bacteria (Table III); type: cell-based; conditions: 10^6 CFU per spot
[4] = tested on: Clostridium perfringens NCCLS control strain; assay: microbe, parasite or virus in culture; type: cell-based; conditions: Clostridium perfringens NCCLS control strain; 10^6 CFU per spot
[5] = decomposition during lyophilization; type: physicochemical; conditions: lyophilization of (IV) to (V)
Description: There is evidence that from 10-15% decomposition of oxydifficidin may have occurred during lyophilization of (IV) to (V). Based on the lyophilized weight of (V) and the UV analysis of (IV), A1 cm^1% (275 nm)--438 is calculated.

Structure (SMILES) | MIC Range (Salmonella typhimurium) [µg/mL] | MIC Range (Streptococcus faecalis) [µg/mL] | MIC Range (Escherichia coli) [µg/mL] | MIC Range (Pseudomonas aeruginosa) [µg/mL] | MIC Range (Serratia marcescens) [µg/mL] | MIC Range (Enterobacter) [µg/mL] | MIC Range (Proteus) [µg/mL] | MIC Range (Klebsiella pneumoniae) [µg/mL] | MIC Range (Staphylococcus aureus) [µg/mL] | MIC (Ser. marcescens) [µg/mL] | MIC [2] [µg/mL] | MIC (B. ovatus Pen^r) [µg/mL] | MIC (Ps. aeruginosa) [µg/mL] | MIC [3] [µg/mL] | MIC [4] [µg/mL] | further results
C=CC=C(C)CCC1CC=CC=C(C)C(OP(=O)(O)O)CCCC=CC=CC=CCC(C)C(=C)CC(=O)O1 (centres unmarked) [Difficidin, difficidin] | 8 (≈ 14.7 µM) | 128 (≈ 235 µM) | 8 (≈ 14.7 µM) | 8 (≈ 14.7 µM) | 4 (≈ 7.34 µM) | 8 to 16 | 0.5 to 8 | 8 (≈ 14.7 µM) | 8 to 16 | 4.0 (≈ 7.34 µM) | 0.125 (≈ 0.229 µM) | 0.125 (≈ 0.229 µM) | 8.0 (≈ 14.7 µM) | 0.125 (≈ 0.229 µM) | > 128 | potency against aerobic microorganisms relative to oxydifficidin (aerobic microorganisms): more potent than oxydifficidin; effectiveness of difficidin relative to oxydifficidin (Salmonella typhimurium; Salmonella typhimurium, in most cases): four times more effective; effectiveness of difficidin relative to oxydifficidin (Pseudomonas aeruginosa; Ps. aeruginosa, in most cases): four times more effective; effectiveness of difficidin relative to oxydifficidin (Serratia marcescens; Serratia marcescens, in most cases): four times more effective; effectiveness of difficidin relative to oxydifficidin (Proteus; Proteus, in most cases): four times more effective; effectiveness of difficidin relative to oxydifficidin (Staphylococcus aureus; S. aureus, in most cases): four times more effective; MIC [1]: 32 µg/mL (≈ 58.8 µM); solubility (solubility): soluble in water, lower alcohols such as methanol and ethanol; Zone Diameter (Vibrio percolans MB 1272; Fraction 61, 40 μl on 3/8" disc): 12 mm; Zone Diameter (Vibrio percolans MB 1272; Fraction 62, 40 μl on 3/8" disc): 12 mm; Zone Diameter (Vibrio percolans MB 1272; Fraction 63, 40 μl on 3/8" disc): 12 mm; Zone Diameter (Vibrio percolans MB 1272; Fraction 64, 40 μl on 3/8" disc): 12 mm; Zone Diameter (Vibrio percolans MB 1272; Fraction 65, 40 μl on 3/8" disc): 12 mm; pH of 0.1% by weight aqueous solution (pH of aqueous solution): 6.9
C=CC=C(C)CCC1CC=CC=C(C)C(OP(=O)(O)O)CCCC=CC=CC=CC(O)C(C)C(=C)CC(=O)O1 (centres unmarked) [Oxydifficidin, oxydifficidin] | 32 (≈ 57.1 µM) | 128 (≈ 228 µM) | 4 to 16 | 16 to 32 | 16 (≈ 28.5 µM) | 32 to 64 | 2 to 32 | 8 (≈ 14.3 µM) | 32 to 128 | 16.0 (≈ 28.5 µM) | 0.06 (≈ 0.107 µM) | 0.25 (≈ 0.446 µM) | 32.0 (≈ 57.1 µM) | 0.25 (≈ 0.446 µM) | > 128 | Zone Diameter (Vibrio percolans MB 1272; Fraction 11, 40 μl on 3/8" disc): 23 mm; Zone Diameter (Vibrio percolans MB 1272; Fraction 12, 40 μl on 3/8" disc): 19 mm; decomposition during lyophilization [5]: 10-15%
